Numbering of substitutions follows the chain as printed. “Also recorded” adds a separate entry of the source. Read-outs that look alike come from different tables or passages of the source.
What was measured:
[1] = target: I. scapularis octβ2R (is-octβ2R) (Ixodes scapularis, UniProt A0ACM8E5E8); assay: cell-based; assay type: cell-based; settings: for potency (EC50) relative to the other TDAs: order octopamine > tyramine > noradrenaline > dopamine
Protocol: (§1) The TGFα shedding assay was performed as previously described ([28]). […] The cells were transfected using lipofectamine 2000 with plasmids encoding alkaline phosphatase–tagged TGFα (AP-TGFα) (2.5 ng/mL), is-octβ2Rs (1 ng/mL), and Gαq/s (0.5 ng/mL). After 24 h, the cells were washed with phosphate-buffered saline and resuspended in Hank's balanced salt solution (HBSS) (supplemented with 5 mM HEPES [pH 7.4]). The cells (90 μL/well) were plated in a 96-well plate and incubated with 10 μL of HBSS solution containing various concentrations of compounds for 1 h at 37 °C. Following centrifugation (200 × g, 2 min), 80 μL of the supernatant was transferred to a separate 96-well plate. Subsequently, 80 µL of 2× para-nitrophenyl phosphate (pNPP) buffer (containing 10 mM pNPP in 40 mM Tris–HCl [pH 9.5], 40 mM NaCl, and 10 mM MgCl2) was added to both the supernatant and cell-containing plates. The optical density at 405 nm of both plates was measured before and after a 1 h incubation at room temperature using a microplate reader (SpectraMax iD3, Molecular Devices, San Jose, CA, United States). AP-TGFα release was calculated using the following formulas:
(§2) ΔOD405=OD450(1h)−OD405(0h)AP−TGFαinsupernatant(%)=(ΔOD405Sup/[ΔOD450Sup+ΔOD405Cell])×125AP−TGFαrelease(%)=AP−TGFαinsupernatantunderastimulatedcondition(%)−AP−TGFαinsupernatantunderavehicle−treatedcondition
(§3) where OD405 (0 h) and […] represent the OD405 before and after a 1 h incubation, respectively, and OD405Sup and OD405Cell represent the OD405 of supernatant and cell plates, respectively. For all pharmacological analyses, nonlinear regression curve fitting was performed with a 3-parameter sigmoid model (Hill coefficient = 1) using Prism 8 (GraphPad Software, La Jolla, CA, United States).

[2] = target: T1, is-octβ2R I62^1.43T mutant (Ixodes scapularis, UniProt A0ACM8E5E8, I41T); assay: TGFα shedding assay, amitraz-resistant mutant I62^1.43T; assay type: cell-based; settings: Table S4
T1 sequence (A0ACM8E5E8 1-384 I41T): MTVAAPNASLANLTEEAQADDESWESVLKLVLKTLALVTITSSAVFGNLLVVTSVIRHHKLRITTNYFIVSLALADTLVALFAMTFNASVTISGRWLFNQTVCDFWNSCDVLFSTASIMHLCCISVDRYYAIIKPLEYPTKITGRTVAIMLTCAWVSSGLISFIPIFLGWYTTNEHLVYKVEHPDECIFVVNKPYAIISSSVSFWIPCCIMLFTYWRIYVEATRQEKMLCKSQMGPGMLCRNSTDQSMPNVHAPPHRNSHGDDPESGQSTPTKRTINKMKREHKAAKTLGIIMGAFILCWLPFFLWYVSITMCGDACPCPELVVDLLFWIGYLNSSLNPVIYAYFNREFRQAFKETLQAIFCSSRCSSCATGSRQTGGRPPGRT
Protocol: as §1, §2, §3

[3] = target: T2, is-octβ2R I61^1.42F mutant (Ixodes scapularis, UniProt A0ACM8E5E8, I40F); assay: TGFα shedding assay, amitraz-resistant mutant I61^1.42F; assay type: cell-based; settings: Table S4
T2 sequence (A0ACM8E5E8 1-384 I40F): T1 sequence (A0ACM8E5E8 1-384 I41T) with I40F, T41I
Protocol: as §1, §2, §3

[4] = target: T3, is-octβ2R N87^2.61S mutant (Ixodes scapularis, UniProt A0ACM8E5E8, N87S); assay: TGFα shedding assay, amitraz-resistant mutant N87^2.61S; assay type: cell-based; settings: Table S4
T3 sequence (A0ACM8E5E8 1-384 N87S): T1 sequence (A0ACM8E5E8 1-384 I41T) with T41I, N87S
Protocol: as §1, §2, §3

[5] = target: T4, is-octβ2R Y67^2.41S mutant (Ixodes scapularis, UniProt A0ACM8E5E8, Y67S); assay: TGFα shedding assay, amitraz-resistant mutant Y67^2.41S; assay type: cell-based; settings: Table S4
T4 sequence (A0ACM8E5E8 1-384 Y67S): T1 sequence (A0ACM8E5E8 1-384 I41T) with T41I, Y67S
Protocol: as §1, §2, §3

[6] = test system: is-octβ2R Y215^5.58H mutant; assay: TGFα shedding assay, amitraz-resistant mutant Y215^5.58H; assay type: cell-based, Ixodes scapularis; settings: versus wild type
Protocol: as §1, §2, §3

[7] = target: T5, is-octβ2R Y215^5.58H mutant (Ixodes scapularis, UniProt A0ACM8E5E8, Y215H); assay: as above; assay type: cell-based
T5 sequence (A0ACM8E5E8 1-384 Y215H): T1 sequence (A0ACM8E5E8 1-384 I41T) with T41I, Y215H
Protocol: as §1, §2, §3

[8] = target: T6, is-octβ2R T60^1.41P mutant (Ixodes scapularis, UniProt A0ACM8E5E8); assay: TGFα shedding assay, amitraz-resistant mutant T60^1.41P; assay type: cell-based; settings: Table S4
T6 sequence (A0ACM8E5E8 1-384 T39P): T1 sequence (A0ACM8E5E8 1-384 I41T) with T39P, T41I
Protocol: as §1, §2, §3

[9] = HEK293, 1 h, Table S2, wild type, AP-TGFα release, HEK293 cells, mean ± SEM, n = 3
[10] = logEC50, Table S2, wild type, HEK293 cells, mean ± SEM, n = 3
[11] = Table S2, wild type, HEK293 cells, mean ± SEM, n = 3

**Q.** Which agonistic activity ([1]; wild type) does the source give for `Cc1ccc(N)c(C)c1` [2′,4′-dimethylaniline] here?
**A.** no agonist activity

**Q.** What does the source list for `CNC[C@H](O)c1ccc(O)c(O)c1` [Adrenaline, adrenaline]?
**A.** EC50 [1]: 3160 nM; Emax ([1]; HEK293, 1 h): 20 ± 2.1%

**Q.** `Cc1ccc(/N=C/N(C)/C=N/c2ccc(C)cc2C)c(C)c1` [Amitraz] was tested. Which EC50 [2] did it give?
**A.** 15.8 nM

**Q.** What about the Emax ([1]; 1 h, Table S4, WT, AP-TGFα release) of the same compound?
**A.** 17 ± 1%

**Q.** What about the Emax [1, 9] of the same compound?
**A.** 26 ± 0.9%

**Q.** What about the EC50 ([1]; LogEC50, Table S4, WT) of the same compound?
**A.** 31.6 nM

**Q.** And the EC50 [1, 10]?
**A.** 126 nM

**Q.** And the EC50 [3]?
**A.** 63.1 nM

**Q.** And the EC50 [4]?
**A.** 50.1 nM

**Q.** What about the EC50 [5] of the same compound?
**A.** 63.1 nM

**Q.** And the “reduction of maximal response (Emax) by the Y215^5.58H mutation” value [6]?
**A.** ~50%

**Q.** What about the EC50 [7] of the same compound?
**A.** 63.1 nM

**Q.** What about the EC50 [8] of the same compound?
**A.** 31.6 nM

**Q.** Which logEC50 [1, 11] does the source give for `Cc1ccc(NC=O)c(C)c1` [DMF, N-(2,4-dimethylphenyl)formamide] here?
**A.** no activity

**Q.** What about the agonistic activity ([1]; wild type) of the same compound?
**A.** no agonistic activity

**Q.** Which logEC50 [1, 11] does the source give for `NCCc1ccc(O)c(O)c1` [Dopamine, dopamine] here?
**A.** signal observed only at 10-5 M

**Q.** What about the “potency (EC50) relative to the other TDAs” value ([1]; wild type) of the same compound?
**A.** significantly weaker affinities; also recorded: lowest potency

**Q.** For `NC[C@H](O)c1ccc(O)c(O)c1` [Noradrenaline, noradrenaline], which Emax [1, 9] is on record?
**A.** 32 ± 13.1%

**Q.** What about the EC50 [1, 10] of the same compound?
**A.** 10000 nM

**Q.** What about the “potency (EC50) relative to the other TDAs” value ([1]; wild type) of the same compound?
**A.** significantly weaker affinities

**Q.** For `NCCc1ccc(O)cc1` [Tyramine, tyramine], which EC50 [1] is on record?
**A.** 1580 nM

**Q.** What about the Emax ([1]; HEK293, 1 h) of the same compound?
**A.** 25 ± 1.7%

**Q.** What about the “potency (EC50) relative to the other TDAs” value ([1]; wild type) of the same compound?
**A.** weaker potency
